Assays:
[1] = system: MPTP-treated C57BL6 N mice (PD model animals); test: Passive avoidance task in PD model animals (MPTP); assay type: in vivo, mouse; conditions: 0.05, 0.1 and 0.3 mg/kg p.o. once daily for two weeks from Day 20, Day 34, FIG. 2
GST-FABP7 = biological target: T1, GST-FABP7 (Homo sapiens, UniProt O15540, K110R); test: Evaluation of FABP ligand affinity using ANS (GST-FABP7); assay type: binding, mouse; conditions: ANS fluorescence displacement; mean±SE of three measurements; read-out: Kd value of FABP for each ligand, GST-FABP7
T1 construct: made in house; host or cells: E. coli BL21 (DE3)
T1 sequence (O15540 1-132 K110R): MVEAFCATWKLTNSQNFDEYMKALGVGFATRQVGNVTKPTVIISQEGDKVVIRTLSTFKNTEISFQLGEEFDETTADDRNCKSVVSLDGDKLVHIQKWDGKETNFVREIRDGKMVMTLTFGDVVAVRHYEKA
Method: (§1) GST-FABP3, GST-FABP4, GST-FABP5, and GST-FABP7 were each expressed in E. coli [BL21 (DE3) strain], and then affinity purification was performed using a glutathione column.
(§2) Cloning of GST-FABP3, GST-FABP4, GST-FABP5 and GST-FABP7 vectors was performed by the following method. After reverse transcription of mRNA isolated from mouse heart into cDNA, the FABP3 gene (RefSeqID: NM_010174.1) and FABP4 gene (RefSeqID: NM_024406.2) were each amplified by PCR. These cDNAs were each inserted between the BamHI/EcoRI cleavage sites of a pGEX-2T vector (GE HealthCare Japan, Tokyo) using a DNA ligation kit (Takara Bio, Kusatsu) and an In-fusion kit (Takara Bio USA, CA, USA) to prepare vectors.
(§3) Purification of GST-binding proteins was performed using a GST purification kit (Takara Bio USA). After the E. coli were collected by centrifugation, the provided extraction buffer and aluminum oxide powder were added, and the mixture was crushed in a mortar. The centrifuged supernatant was added to the provided glutathione column and allowed to stand on ice for 30 minutes. The supernatant in the column was then discarded, and washing was performed with extraction buffer, followed by elution with elution buffer containing glutathione. The protein concentration of the elution product was calculated from the absorbance at 280 nm and then used for the ANS assay. 1-anilinonaphthalene-8-sulfonic acid (ANS, final concentration: […], in a solution of 10 mM KH2PO4 and 40 mM KCl at pH 7.4), which binds to FABP proteins and emits fluorescence, and FABP proteins (final concentration: […]), as well as various ligands at concentrations of 0 nM, 100 nM, 1,000 nM, 2,000 nM, and 4,000 nM (final) were incubated for 2 min, and then the fluorescence of ANS was measured (Ex/Em=355 nm/460 nm). The fluorescence intensity at each ligand concentration was converted to a relative value (%) to the ANS fluorescence intensity in the absence of ligand, and then the dissociation constant Kd (nM) was calculated by […] using the following equation.
(§4) The Kd values in the above table are indicated as the mean±SE of three measurements. […] Example Compounds 1 to 5 in the table may also be referred to as Compounds 1 to 5, respectively.

[2] = system: ICR mice, focal cerebral ischemia (tMCAO); test: Cerebral neuroprotection in focal cerebral ischemia model (tMCAO); assay type: in vivo, mouse; conditions: tMCAO 2 hours, 0.3 mg/kg orally after reperfusion
Method: Male ICR mice (5 weeks old, 25-30 g) were purchased from Japan SLC, Inc. (Shizuoka, Japan). The animals were reared under constant temperature and humidity conditions, in a 12-hour light/dark cycle (light on: 09:00-21:00), and fed ad libitum. All mice were anesthetized with a combination of 0.3 mg/kg medetomidine, 4.0 mg/kg midazolam, and 5.0 mg/kg butorphanol. A silicone-coated 6-0 suture (Doccol Corporation, USA) was inserted from the right external carotid artery into the internal carotid artery up to the origin of the middle cerebral artery, and left in place for 2 hours, then the suture was removed and reperfusion was performed to prepare a mouse model of focal cerebral ischemia (tMCAO). Mice in the sham surgery group underwent the same treatment except for the insertion of the suture. […] Regional cerebral blood flow (rCBF) was monitored by Laser-Doppler flowmetry (FLOC1, OMEGAWAVE, Tokyo, Japan) to confirm whether the right hemisphere was ischemic or not. […] Infarct volume was measured using ImageJ software and expressed as a percentage of the total hemisphere (corresponding to B in FIG. 19, E in FIG. 21, and H in FIG. 23. The vertical axis Neurological score in C of FIG. 19, F of FIG. 21, and I of FIG. 23 represents the neurological deficit. The vertical axis Survival rate (%) in FIG. 24 corresponds to the mouse survival rate). […]

[3] = system: MPTP-treated C57BL6 N mice (PD model animals); test: Beam walking task in PD model animals (MPTP); assay type: in vivo, mouse; conditions: Example Compound 2 0.03, 0.1, 0.3 mg/kg or LIGAND 1 0.3 mg/kg, Day 34, FIG. 5
Method: In the beam walking task, the mice were placed on a thin board and allowed to walk, and the number of foot slips before reaching the goal box (corresponding to the vertical axis Number of foot slips in FIG. 5) was measured.

GST-FABP4 = biological target: T2, GST-FABP4; test: Evaluation of FABP ligand affinity using ANS (GST-FABP4); assay type: binding, mouse; conditions: ANS fluorescence displacement; mean±SE of three measurements; read-out: Kd value of FABP for each ligand, GST-FABP4
T2 construct: made in house; host or cells: E. coli BL21 (DE3)
Method: as §1, §2, §3, §4

[4] = system: FABP3 and phosphorylated α-synuclein; test: Double staining for phosphorylated α-synuclein and FABP3 in dopaminergic neurons of PD model animals; assay type: in vivo, mouse; conditions: MPTP mice
Description: (§5) The results for the substantia nigra region are shown in FIGS. 6, 7, 10, 11, 14, and 15, and for the ventrotegmental area in FIGS. 8, 9, 12, 13, 16, and 17 (the vertical axis Number of TH^+ cells in FIGS. 6 and 8 corresponds to the number of dopaminergic neurons. The vertical axis Number of double-positive cells/TH^+ positive cells (%) in FIGS. 11 and 13 corresponds to the percentage of dopaminergic neurons that contain phosphorylated α-synuclein. The vertical axis Triple-positive cells/TH-positive cells in FIGS. 15 and 17 corresponds to the percentage of dopaminergic neurons that contain both FABP3 and phosphorylated α-synuclein).

[5] = system: MPTP-treated C57BL6 N mice (PD model animals); test: Rotarod task in PD model animals (MPTP); assay type: in vivo, mouse; conditions: Example Compound 2 0.03, 0.1, 0.3 mg/kg or LIGAND 1 0.3 mg/kg, Day 34, 20 rpm, FIG. 4
GST-FABP5 = biological target: T3, GST-FABP5; test: Evaluation of FABP ligand affinity using ANS (GST-FABP5); assay type: binding, mouse; conditions: ANS fluorescence displacement; mean±SE of three measurements; read-out: Kd value of FABP for each ligand, GST-FABP5
T3 construct: made in house; host or cells: E. coli BL21 (DE3)
Method: as §1, §2, §3

[6] = system: dopaminergic neurons (TH+ cells) in SNpc and VTA; test: Dopaminergic neuroprotection: TH-positive cells in brain sections of PD model animals; assay type: in vivo, mouse; conditions: MPTP mice; Example Compound 2 0.1, 0.3, 1.0 mg/kg or LIGAND 1 0.3 mg/kg; Day 34; FIGS. 6 to 9
Description: as §5

[7] = system: phosphorylated α-synuclein; test: Phosphorylated α-synuclein staining in dopaminergic neurons of PD model animals; conditions: MPTP mice
Description: as §5

[8] = system: MPTP-treated C57BL6 N mice (PD model animals); test: Novel object recognition task in PD model animals (MPTP); assay type: in vivo, mouse; conditions: 0.03, 0.1 and 0.3 mg/kg p.o. once daily for two weeks, Day 34, FIG. 3
Method: In the novel object recognition task, objects of the same shape were placed to be memorized by the mice in the training trial, and in the test trial, one of the objects was replaced with a novel object, and the rate of contact with both objects (corresponding to the vertical axis Discrimination index (%) in FIG. 3) was evaluated.

GST-FABP3 = biological target: T4, GST-FABP3; test: Evaluation of FABP ligand affinity using ANS (GST-FABP3); assay type: binding, mouse; conditions: ANS fluorescence displacement; mean±SE of three measurements; read-out: Kd value of FABP for each ligand, GST-FABP3
T4 construct: made in house; host or cells: E. coli BL21 (DE3)

dopaminergic neurons = conditions: reported in PTL 1 and NPL 6; cited from earlier work

T2 sequence (P15090 whole entry): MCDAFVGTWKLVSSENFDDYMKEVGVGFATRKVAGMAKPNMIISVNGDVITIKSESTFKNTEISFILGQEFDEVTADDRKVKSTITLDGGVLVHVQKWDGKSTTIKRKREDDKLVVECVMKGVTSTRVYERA
T3 sequence (Q01469 whole entry): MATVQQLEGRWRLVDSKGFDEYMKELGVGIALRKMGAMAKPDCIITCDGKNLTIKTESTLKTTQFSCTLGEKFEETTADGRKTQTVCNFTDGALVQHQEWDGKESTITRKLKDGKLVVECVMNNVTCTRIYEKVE
T4 sequence (P05413 with tags, fused parts or gaps): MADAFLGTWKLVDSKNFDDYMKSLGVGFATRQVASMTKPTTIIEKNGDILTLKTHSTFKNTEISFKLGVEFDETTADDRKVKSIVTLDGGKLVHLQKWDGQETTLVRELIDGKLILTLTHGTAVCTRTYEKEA

O=C(O)CCCOc1ccc(F)cc1-c1cc(-c2ccccc2C(F)(F)F)n(-c2ccccc2)n1 [Example Compound 1, 4-(4-fluoro-2-(1-phenyl-5-(2-(trifluoromethyl)phenyl)-1H-pyrazol-3-yl)phenoxy)butanoic acid]
Passive avoidance task: time until entering the dark room (Latency) [1]: concentration-dependent prolongation of the waiting time | Kd (GST-FABP7): ≥ 1000 µM | Mouse survival rate compared to Vehicle mice ([2]; FIG. 24): improved | Cerebral infarct volume compared to Vehicle mice ([2]; TTC staining): reduced

O=C(O)CCCOc1ccccc1-c1cc(-c2ccccc2C(F)(F)F)n(-c2ccccc2)n1 [Example Compound 2, 4-(2-(1-phenyl-5-(2-(trifluoromethyl)phenyl)-1H-pyrazol-3-yl)phenoxy)butanoic acid]
Beam walking task: number of foot slips, motor function [3]: improvement in motor function was confirmed | Kd (GST-FABP4): 0.104 ± 0.0363 µM | Localization of FABP3 and phosphorylated α-synuclein in dopaminergic neurons ([4]; 0.1, 0.3, 1.0 mg/kg, Day 34, SNpc and VTA, FIGS. 14 to 17): reduced | Interaction between phosphorylated α-synuclein and FABP3 in dopaminergic neurons, substantia nigra (SNpc) ([4]; brain sections of SNpc, FIG. 15): inhibited | Interaction between phosphorylated α-synuclein and FABP3 in dopaminergic neurons, ventrotegmental area (VTA) ([4]; brain sections of VTA, FIG. 17): inhibited | Rotarod task: time until the mice fell (Latency), motor function [5]: improvement in motor function was confirmed | Kd (GST-FABP5): 0.189 ± 0.0245 µM | Kd (GST-FABP7): 2.05 ± 0.0352 µM | Number of TH+ cells (dopaminergic neurons) in SNpc and VTA [6]: suppresses the decrease in dopaminergic neurons | Phosphorylation level of α-synuclein in dopaminergic neurons ([7]; 0.1, 0.3, 1.0 mg/kg, Day 34, SNpc and VTA, FIGS. 10 to 13): reduced | Protection of dopaminergic neurons from the toxicity of phosphorylated α-synuclein, substantia nigra (SNpc) ([7]; brain sections of SNpc, FIG. 11): protected dopaminergic neurons | Protection of dopaminergic neurons from the toxicity of phosphorylated α-synuclein, ventrotegmental area (VTA) ([7]; brain sections of VTA, FIG. 13): protected dopaminergic neurons | Novel object recognition task: rate of contact with novel and known objects (Discrimination index) [8]: trend of improvement in cognitive function | Kd (GST-FABP3): 0.0117 ± 0.0188 µM

O=C(O)CCCOc1ccccc1-c1nc(-c2ccccc2C(F)(F)F)n(-c2ccccc2)n1 [Example Compound 3, 4-(2-(1-phenyl-5-(2-(trifluoromethyl)phenyl)-1H-1,2,4-triazol-3-yl)phenoxy)butanoic acid]
Kd (GST-FABP4): 0.369 ± 0.0441 µM | Kd (GST-FABP7): ≥ 1000 µM | Kd (GST-FABP3): 0.16 ± 0.0341 µM

CC(C)c1ccc(-n2nc(-c3cc(F)ccc3OCCCC(=O)O)cc2-c2ccccc2C(F)(F)F)cc1 [Example Compound 4, 4-(4-fluoro-2-(1-(4-isopropylphenyl)-5-(2-(trifluoromethyl)phenyl)-1H-pyrazol-3-yl)phenoxy)butanoic acid]
Kd (GST-FABP4): 2.18 ± 0.458 µM | Kd (GST-FABP5): 1.35 ± 0.204 µM | Kd (GST-FABP7): ≥ 1000 µM | Kd (GST-FABP3): 0.113 ± 0.0031 µM

CC(C)c1ccc(-n2nc(-c3ccccc3OCCCC(=O)O)cc2-c2ccccc2C(F)(F)F)cc1 [Example Compound 5, 4-(2-(1-(4-isopropylphenyl)-5-(2-(trifluoromethyl)phenyl)-1H-pyrazol-3-yl)phenoxy)butanoic acid]
Kd (GST-FABP4): 0.434 ± 0.0109 µM | Kd (GST-FABP5): 1.82 ± 0.392 µM | Kd (GST-FABP7): ≥ 1000 µM | Kd (GST-FABP3): 0.0548 ± 0.0045 µM

O=C(O)CCCOc1ccccc1-c1cc(-c2ccccc2Cl)n(-c2ccccc2)n1 [LIGAND 1, reference compound]
Protection of dopaminergic neurons from cell death due to α-synuclein oligomerization (dopaminergic neurons): protects dopaminergic neurons from cell death | Beam walking task: number of foot slips, motor function [3]: Improvement was also confirmed | Kd (GST-FABP4): 0.229 ± 0.0399 µM | Rotarod task: time until the mice fell (Latency), motor function [5]: No improvement was observed | Kd (GST-FABP5): 0.324 ± 0.0452 µM | Number of TH+ cells (dopaminergic neurons) in SNpc and VTA [6]: no improvement was observed

— patent US20260085047A1, “TRIPHENYLAZOLE COMPOUND” (SHIRATORI PHARMACEUTICAL CO., LTD., priority 2022, published 2026)
